The subject of one data set is C57BL/6J mice. The data set can be described thus: Glucokinase activator in vivo screen (blood glucose after oral dosing). Conditions: oral gavage 50 mg/kg after two hour fast, readings 1, 2, 4 and 6 hours post dose, p≦0.05 for two consecutive assay time points. The method, then: Glucokinase Activator in vivo Screen Protocol: C57BL/6J mice are orally dosed via gavage with Glucokinase (GK) activator at 50 mg/kg body weight following a two hour fasting period. Blood glucose determinations are made five times during the six hour post-dose study period.
Mice (n=6) are weighed and fasted for a two hour period prior to oral treatment.

`CS(=O)(=O)c1ccc([C@@H](CC2CCCC2)C(=O)Nc2cnc(/C(N)=N\O)cn2)cc1Cl` [Example 1, 2(R)-(3-Chloro-4-methanesulfonyl-phenyl)-3-cyclopentyl-N-[5-(N-hydroxycarbamimidoyl)-pyrazin-2-yl]-propionamide] yielded a melting point of 117 to 121 °C. Moreover, the “decrease in blood glucose compared to vehicle” value (“decrease in blood glucose” below) with C57BL/6J mice was “statistically significant (p≦0.05) decrease in blood glucose”.
On the same counts, the results for `CS(=O)(=O)c1ccc([C@@H](CC2CCCC2)C(=O)Nc2cnc(/C(N)=N\O)cn2)cc1` [Example 3, 3-Cyclopentyl-2(R)-N-[5-(N-hydroxycarbamimidoyl)-pyrazin-2-yl]-2-(4-methanesulfonyl-phenyl)-propionamide] are 223 °C (dec.) and “statistically significant (p≦0.05) decrease in blood glucose”.
`CSc1cnc(NC(=O)[C@H](CC2CCCC2)c2ccc(S(C)(=O)=O)cc2)cn1` [Example 5, 3-Cyclopentyl-2(R)-(4-methanesulfonyl-phenyl)-N-(5-methylsulfanyl-pyrazin-2-yl)-propionamide]: the melting point lay in the range of 71 to 77 °C.
`CS(=O)(=O)c1ccc([C@@H](CC2CCCC2)C(=O)Nc2cnc(SCCO)cn2)cc1Cl` [Example 6, 2(R)-(3-Chloro-4-methanesulfonyl-phenyl)-3-cyclopentyl-N-[5-(2-hydroxy-ethylsulfanyl)-pyrazin-2-yl]-propionamide] showed a melting point of 78 to 81 °C. In the data set with C57BL/6J mice, the “decrease in blood glucose” value is listed as “statistically significant (p≦0.05) decrease in blood glucose”.
On the same counts, the results for `C[S+]([O-])c1cnc(NC(=O)[C@H](CC2CCCC2)c2ccc(S(C)(=O)=O)c(Cl)c2)cn1` (stereo partly drawn) [Example 7, 2(R)-(3-Chloro-4-methanesulfonyl-phenyl)-3-cyclopentyl-N-(5-methanesulfinyl-pyrazin-2-yl)-propionamide] are 88 to 95 °C and “statistically significant (p≦0.05) decrease in blood glucose”.
As to `CN(C)S(=O)(=O)c1cnc(NC(=O)[C@H](CC2CCCC2)c2ccc(S(C)(=O)=O)c(Cl)c2)cn1` [Example 9, 2(R)-(3-Chloro-4-methanesulfonyl-phenyl)-3-cyclopentyl-N-(5-dimethylsulfamoyl-pyrazin-2-yl)-propionamide], the melting point stood at 100.2 °C.
Regarding `CS(=O)(=O)Nc1ccc(NC(=O)[C@H](CC2CCCC2)c2ccc(S(C)(=O)=O)c(Cl)c2)nc1` [Example 12, 2(R)-(3-Chloro-4-methanesulfonyl-phenyl)-3-cyclopentyl-N-(5-methanesulfonylamino-pyridin-2-yl)-propionamide], the melting point lay within 146 to 150 °C. Also, in the data set with C57BL/6J mice, the “decrease in blood glucose” value is given as “statistically significant (p≦0.05) decrease in blood glucose”.
For the compound `CS(=O)(=O)Nc1cnc(NC(=O)[C@H](CC2CCCC2)c2ccc(S(C)(=O)=O)c(Cl)c2)cn1` [Example 13, 2(R)-(3-Chloro-4-methanesulfonyl-phenyl)-3-cyclopentyl-N-(5-methanesulfonylamino-pyrazin-2-yl)-propionamide], the melting point was in the range of 108 to 110 °C.
As for `CN(C)c1ccc(NC(=O)[C@H](CC2CCCC2)c2ccc(S(C)(=O)=O)c(Cl)c2)nc1` [Example 14, 2(R)-(3-Chloro-4-methanesulfonyl-phenyl)-3-cyclopentyl-N-(5-dimethylamino-pyridin-2-yl)-propionamide], the melting point stood at 166.2 °C. The “decrease in blood glucose” value in the data set with C57BL/6J mice is “statistically significant (p≦0.05) decrease in blood glucose”.
Taken in the same sequence, the figures for `CN(C)c1cnc(NC(=O)[C@H](CC2CCCC2)c2ccc(S(C)(=O)=O)c(Cl)c2)cn1` [Example 15, 2(R)-(3-Chloro-4-methylsulfonyl-phenyl)-3-cyclopentyl-N-(5-dimethylamino-pyrazin-2-yl)-propionamide] were 93.3 to 97.7 °C and “statistically significant (p≦0.05) decrease in blood glucose”.
On the same counts, the results for `CS(=O)(=O)c1ccc([C@@H](CC2CCCC2)C(=O)Nc2cnc(-c3noc(N)n3)cn2)cc1Cl` [Example 17, N-[5-(5-Amino-[1,2,4]oxadiazol-3-yl)-pyrazin-2-yl]-2(R)-(3-chloro-4-methanesulfonyl-phenyl)-3-cyclopentyl-propionamide] are 262 to 264 °C and “statistically significant (p≦0.05) decrease in blood glucose”.
On the same counts, the results for `CS(=O)(=O)c1ccc([C@@H](CC2CCCC2)C(=O)Nc2cnc(C(=O)NO)cn2)cc1Cl` [Example 29, 5-[2(R)-(3-Chloro-4-methanesulfonyl-phenyl)-3-cyclopentyl-propionylamino]-pyrazine-2-carboxylic acid hydroxyamide] are 134 to 139 °C and “statistically significant (p≦0.05) decrease in blood glucose”.
Consider `CSCc1cnc(NC(=O)C(CC2CCCC2)c2ccc(S(C)(=O)=O)c(Cl)c2)cn1` (stereo not drawn) [Example 30, 2-(3-Chloro-4-methanesulfonyl-phenyl)-3-cyclopentyl-N-(5-methylsulfanylmethyl-pyrazin-2-yl)-propionamide], for which the melting point lay in the range of 70 to 75 °C.
In turn, `CN(C)Cc1cnc(NC(=O)[C@H](CC2CCCC2)c2ccc(S(C)(=O)=O)c(Cl)c2)cn1` [Example 32, 2(R)-(3-Chloro-4-methanesulfonyl-phenyl)-3-cyclopentyl-N-(5-dimethylaminomethyl-pyrazin-2-yl)-propionamide] had a melting point of 88 to 91.5 °C.
The compound `Cc1nc(-c2cnc(NC(=O)C(CC3CCCC3)c3ccc(S(C)(=O)=O)c(Cl)c3)cn2)no1` (stereo not drawn) [Example 33, 2-(3-Chloro-4-methanesulfonyl-phenyl)-3-cyclopentyl-N-[5-(5-methyl-[1,2,4]oxadiazyl-3-yl)-pyrazin-2-yl]-propionamide] yielded a melting point of 101.9 to 104.8 °C.
`C/C(=N/O)c1cnc(NC(=O)[C@H](CC2CCCC2)c2ccc(S(C)(=O)=O)cc2)cn1` [Example 34, 3-Cyclopentyl-N-[5-(1-hydroxyimino-ethyl)-pyrazin-2-yl]-2(R)-(4-methanesulfonyl-phenyl)-propionamide]: the melting point lay in the range of 118.8 to 122.4 °C. Besides, the “decrease in blood glucose” value with C57BL/6J mice is given as “statistically significant (p≦0.05) decrease in blood glucose”.
`Cc1noc(-c2cnc(NC(=O)[C@H](CC3CCCC3)c3ccc(S(C)(=O)=O)c(Cl)c3)cn2)n1` [Example 35, 2(R)-(3-Chloro-4-methanesulfonyl-phenyl)-3-cyclopentyl-N-[5-(3-methyl-[1,2,4]oxadiazol-5-yl)-pyrazin-2-yl]-propionamide] showed a melting point of 101 to 105 °C.
Still for that read-out and setting: to `CSCc1cnc(NC(=O)[C@H](CC2CCCC2)c2ccc(S(C)(=O)=O)c(Cl)c2)cn1` [Example 36, 2(R)-(3-Chloro-4-methanesulfonyl-phenyl)-3-cyclopentyl-N-(5-methylsulfanylmethyl-pyrazin-2-yl)-propionamide] belongs 75 to 76.7 °C.
On the same count and under the same terms, to `CS(=O)(=O)c1ccc(C(CC2CCCC2)C(=O)Nc2cnc(/C(C#N)=N\O)cn2)cc1Cl` (stereo not drawn) [Example 37, 2-(3-Chloro-4-methanesulfonyl-phenyl)-N-[5-(cyano-hydroxyimino-methyl)-pyrazin-2-yl]-3-cyclopentyl-propionamide] belongs 130 to 133 °C.
Same read-out and setting: next, `C[S+]([O-])Cc1cnc(NC(=O)[C@H](CC2CCCC2)c2ccc(S(C)(=O)=O)c(Cl)c2)cn1` (stereo partly drawn) [Example 38, 2(R)-(3-Chloro-4-methanesulfonyl-phenyl)-3-cyclopentyl-N-(5-methanesulfinylmethyl-pyrazin-2-yl)-propionamide]: 102 to 106 °C.
In turn, `CC(=O)c1cnc(NC(=O)[C@H](CC2CCCC2)c2ccc(S(C)(=O)=O)c(Cl)c2)cn1` [Example 39, N-(5-Acetyl-pyrazin-2-yl)-2(R)-(3-chloro-4-methanesulfonyl-phenyl)-3-cyclopentyl-propionamide] had a melting point of 77 to 80 °C.
On the same count and under the same terms, next, `CS(=O)(=O)c1ccc([C@@H](CC2CCCC2)C(=O)Nc2cnc(C(CO)CO)cn2)cc1Cl` [Example 40, 2(R)-(3-Chloro-4-methanesulfonyl-phenyl)-3-cyclopentyl-N-[5-(2-hydroxy-1-hydroxymethyl-ethyl)-pyrazin-2-yl]-propionamide]: 110 to 120 °C.
On the same count and under the same terms, next, `CS(=O)(=O)c1ccc([C@@H](CC2CCCC2)C(=O)Nc2cnc(-c3ccsc3)cn2)cc1Cl` [Example 77, 2(R)-(3-Chloro-4-methanesulfonyl-phenyl)-3-cyclopentyl-N-(5-thiophen-3-yl-pyrazin-2-yl)-propionamide]: 96 to 102 °C; `CS(=O)(=O)c1ccc([C@@H](CC2CCCC2)C(=O)Nc2cnc(-c3ccc(C#N)s3)cn2)cc1Cl` [Example 79, 2(R)-(3-Chloro-4-methanesulfonyl-phenyl)-N-[5-(5-cyano-thiophen-2-yl)-pyrazin-2-yl]-3-cyclopentyl-propionamide]: 101 to 107 °C.
`CS(=O)(=O)c1ccc([C@@H](CC2CCCC2)C(=O)Nc2cnc(C[C@H](O)CO)cn2)cc1Cl` [Example 81, 2(R)-(3-Chloro-4-methanesulfonyl-phenyl)-3-cyclopentyl-N-[5-(2(S),3-dihydroxy-propyl)-pyrazin-2-yl]-propionamide]: the melting point is 61 to 65 °C.
Still for that read-out and setting: to `CS(=O)(=O)c1ccc([C@@H](CC2CCCC2)C(=O)Nc2cnc(C[C@@H](O)CO)cn2)cc1Cl` [Example 82, 2(R)-(3-chloro-4-methanesulfonyl-phenyl)-3-cyclopentyl-N-[5-(2(R),3-dihydroxy-propyl)-pyrazin-2-yl]-propionamide] belongs 64 to 69 °C.

By melting point is commonly meant the temperature, or range, at which the solid turns liquid.

Values taken from patent US7132425B2, “5-substituted-six-membered heteroaromatic glucokinase activators” (Hoffmann-La Roche Inc., priority 2002, dated 2006).
